Reference: PubChem BioAssay (NCI)
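The concentration for 50% growth inhibition is given as GI50. TGI is the concentration that stops growth completely.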

Key:
Test in all cases: NCI tumour cell line growth inhibition, 384-well format
A549 NSCLC = test system: A549 NSCLC
HCC-2998 colon = test system: HCC-2998 colon
NCI-H23 lung = test system: NCI-H23 lung
NCI-H322M lung = test system: NCI-H322M lung
OVCAR-3 ovarian = test system: OVCAR-3 ovarian
OVCAR-4 ovarian = test system: OVCAR-4 ovarian
OVCAR-8 ovarian = test system: OVCAR-8 ovarian
RXF 393 renal = test system: RXF 393 renal
SF-295 CNS = test system: SF-295 CNS
SK-MEL-2 melanoma = test system: SK-MEL-2 melanoma
SK-MEL-28 melanoma = test system: SK-MEL-28 melanoma
SK-MEL-5 melanoma = test system: SK-MEL-5 melanoma
SN12C renal = test system: SN12C renal

SMILES	GI50 (A549 NSCLC)	TGI (A549 NSCLC)	GI50 (HCC-2998 colon)	TGI (HCC-2998 colon)	GI50 (NCI-H23 lung)	TGI (NCI-H23 lung)	GI50 (NCI-H322M lung)	TGI (NCI-H322M lung)	GI50 (OVCAR-3 ovarian)	TGI (OVCAR-3 ovarian)	GI50 (OVCAR-4 ovarian)	TGI (OVCAR-4 ovarian)	GI50 (OVCAR-8 ovarian)	TGI (OVCAR-8 ovarian)	GI50 (RXF 393 renal)	TGI (RXF 393 renal)	GI50 (SF-295 CNS)	TGI (SF-295 CNS)	GI50 (SK-MEL-2 melanoma)	TGI (SK-MEL-2 melanoma)	also measured
Cc1cc(Nc2ccc(NC(=O)c3ccc(Nc4ccnc5ccccc45)cc3)cc2)nc(N)n1	1870 nM	3400 nM	541 nM	1000 nM	1010 nM	2840 nM	418 nM	1260 nM	189 nM	333 nM	521 nM	957 nM	831 nM	2100 nM	750 nM	1840 nM	3160 nM	8990 nM	199 nM	386 nM	GI50 (SK-MEL-28 melanoma): 987 nM; TGI (SK-MEL-28 melanoma): 2270 nM; GI50 (SK-MEL-5 melanoma): 1340 nM; TGI (SK-MEL-5 melanoma): 2630 nM; GI50 (SN12C renal): 1220 nM; TGI (SN12C renal): 2480 nM
CNCc1ccccc1-c1csc([C@@H](C)Nc2nc(C)nc3cc(OC)c(OC)cc23)c1	1670 nM	3040 nM	240 nM	1070 nM	1250 nM	2540 nM	1210 nM	2480 nM	1260 nM	2520 nM	1140 nM	2380 nM	1500 nM	2830 nM	414 nM	1670 nM	1700 nM	3070 nM	1320 nM	2590 nM	GI50 (SK-MEL-28 melanoma): 1510 nM; TGI (SK-MEL-28 melanoma): 2840 nM; GI50 (SK-MEL-5 melanoma): 1150 nM; TGI (SK-MEL-5 melanoma): 2370 nM; GI50 (SN12C renal): 1030 nM; TGI (SN12C renal): 2200 nM
